Assay results published in patent US20070059369A1, “Subcutaneous delivery system, process for the preparation of the same and use of the same for the treatment of cholinergic deficient disorders” (priority 2003, published 2007).

Columns and labels:
[1] = tested on: acetylcholinesterase (AChE); assay: Inhibition of acetylcholinesterase; type: biochemical; details: different species (rat, bovine and human)
[2] = molecular target: acetylcholinesterase (Homo sapiens, UniProt P22303); details: from EP 0 806 416; cited from earlier work
[3] = molecular target: butyrylcholinesterase (BuChE) (Homo sapiens, UniProt P06276); assay: Inhibition of butyrylcholinesterase; type: biochemical; details: in contrast to AChE
[4] = aged patients and patients suffering from Alzheimer's disease; cited from earlier work
[5] = tested on: cerebral hypoxia-ischemia rat model; details: cited from earlier work

Sequence of acetylcholinesterase (P22303 32-614): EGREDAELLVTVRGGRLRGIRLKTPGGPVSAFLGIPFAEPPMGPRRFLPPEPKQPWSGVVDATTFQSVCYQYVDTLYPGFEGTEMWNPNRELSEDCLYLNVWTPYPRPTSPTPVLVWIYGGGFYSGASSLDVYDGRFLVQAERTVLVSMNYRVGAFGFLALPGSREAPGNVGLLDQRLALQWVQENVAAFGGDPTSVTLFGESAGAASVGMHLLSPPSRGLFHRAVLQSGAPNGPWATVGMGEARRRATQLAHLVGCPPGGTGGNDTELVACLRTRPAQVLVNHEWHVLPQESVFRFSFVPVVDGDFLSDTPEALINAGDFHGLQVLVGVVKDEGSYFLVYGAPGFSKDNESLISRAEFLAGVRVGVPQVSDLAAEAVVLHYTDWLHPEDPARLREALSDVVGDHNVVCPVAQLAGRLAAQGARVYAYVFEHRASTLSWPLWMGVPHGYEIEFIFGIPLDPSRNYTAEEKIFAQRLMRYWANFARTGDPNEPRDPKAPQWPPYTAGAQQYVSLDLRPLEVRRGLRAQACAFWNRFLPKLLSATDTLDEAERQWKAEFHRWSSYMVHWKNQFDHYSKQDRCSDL
Sequence of butyrylcholinesterase (BuChE) (P06276 29-602): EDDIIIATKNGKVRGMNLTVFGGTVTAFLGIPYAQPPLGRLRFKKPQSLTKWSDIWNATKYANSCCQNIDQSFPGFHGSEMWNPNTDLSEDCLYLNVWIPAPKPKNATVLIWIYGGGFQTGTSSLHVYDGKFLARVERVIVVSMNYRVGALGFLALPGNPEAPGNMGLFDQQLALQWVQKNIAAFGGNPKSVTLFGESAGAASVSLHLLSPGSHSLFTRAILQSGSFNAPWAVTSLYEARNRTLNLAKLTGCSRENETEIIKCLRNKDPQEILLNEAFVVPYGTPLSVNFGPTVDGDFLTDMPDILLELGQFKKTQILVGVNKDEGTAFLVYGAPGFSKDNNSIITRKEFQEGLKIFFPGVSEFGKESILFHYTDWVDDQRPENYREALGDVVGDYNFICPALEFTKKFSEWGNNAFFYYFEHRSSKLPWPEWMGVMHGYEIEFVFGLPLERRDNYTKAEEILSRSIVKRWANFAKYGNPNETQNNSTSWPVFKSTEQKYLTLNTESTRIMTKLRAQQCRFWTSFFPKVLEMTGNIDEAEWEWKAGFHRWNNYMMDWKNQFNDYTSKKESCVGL

**Q.** For `C/C=C1\C2C=C(C)CC1(/N=C/c1cc(Cl)cc(OC)c1O)c1ccc(=O)[nH]c1C2` (centres unmarked) [derivative of formula (III)], which “Inhibition of acetylcholinesterase (AChE)” value [1] is on record?
**A.** potent and selective inhibitor

**Q.** What about the “Selectivity for acetylcholinesterase compared to butyrylcholinesterase” value [2] of the same molecule?
**A.** highly selective activity in favour of acetylcholinesterase

**Q.** And the “Inhibitory activity on butyrylcholinesterase (BuChE)” value [3]?
**A.** much weaker inhibitory activity

**Q.** With `C/C=C1\[C@H]2C=C(C)C[C@]1(N)c1ccc(=O)[nH]c1C2` [Huperzine A] as the molecule, how does the Memory-enhancing effects [4] read?
**A.** memory-enhancing effects

**Q.** And the “Neuroprotective effect of rescue treatment” value [5]?
**A.** beneficial neuroprotective effect
